Measurements reported in ChEMBL document CHEMBL3132769, “Fragment growing to retain or alter the selectivity of anchored kinase hinge-binding fragments” (Medchemcomm, 2014).

Legend:
[1] = target: Ribosomal protein S6 kinase alpha-2 (Homo sapiens) (UniProt Q15349); assay: Inhibition of human full length RSK3 expressed in baculovirus assessed as substrate phosphorylation using fluorescence-labelled peptides as substrate at 8 uM after 90 mins by microfluidic peptide phosphorylation assay
[2] = target: T1, Serine/threonine-protein kinase D1 (Homo sapiens) (UniProt Q15139); assay: Inhibition of human full length PKD1 expressed in baculovirus assessed as substrate phosphorylation using fluorescence-labelled peptides as substrate at 8 uM after 90 mins by microfluidic peptide phosphorylation assay
T1 sequence (whole entry): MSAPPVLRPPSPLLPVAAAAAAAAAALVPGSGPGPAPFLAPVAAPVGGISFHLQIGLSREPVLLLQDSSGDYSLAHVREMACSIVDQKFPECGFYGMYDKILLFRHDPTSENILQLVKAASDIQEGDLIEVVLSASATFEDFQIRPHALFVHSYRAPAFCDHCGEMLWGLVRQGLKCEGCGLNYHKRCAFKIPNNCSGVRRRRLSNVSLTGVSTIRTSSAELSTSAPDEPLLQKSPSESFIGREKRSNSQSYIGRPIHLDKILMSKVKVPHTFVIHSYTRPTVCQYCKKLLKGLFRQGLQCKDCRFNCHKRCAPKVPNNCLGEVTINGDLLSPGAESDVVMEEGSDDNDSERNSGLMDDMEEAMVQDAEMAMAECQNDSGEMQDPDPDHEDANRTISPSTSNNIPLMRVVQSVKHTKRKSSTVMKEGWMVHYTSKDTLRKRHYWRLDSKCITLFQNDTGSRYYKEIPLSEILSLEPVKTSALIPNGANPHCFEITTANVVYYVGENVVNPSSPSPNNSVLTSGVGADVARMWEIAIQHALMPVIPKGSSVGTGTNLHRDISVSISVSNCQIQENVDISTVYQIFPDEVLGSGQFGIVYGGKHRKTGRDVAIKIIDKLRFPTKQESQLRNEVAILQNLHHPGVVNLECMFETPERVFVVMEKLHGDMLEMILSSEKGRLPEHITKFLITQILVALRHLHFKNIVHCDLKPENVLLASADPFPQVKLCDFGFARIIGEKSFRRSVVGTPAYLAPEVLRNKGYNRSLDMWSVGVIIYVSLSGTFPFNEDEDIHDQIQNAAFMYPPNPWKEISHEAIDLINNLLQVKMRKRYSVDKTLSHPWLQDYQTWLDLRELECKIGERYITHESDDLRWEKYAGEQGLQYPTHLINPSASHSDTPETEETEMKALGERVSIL

[3] = target: Tyrosine-protein kinase Fyn (Homo sapiens) (UniProt P06241); assay: Inhibition of human full length FYN expressed in baculovirus assessed as substrate phosphorylation using fluorescence-labelled peptides as substrate at 0.06 uM after 90 mins by microfluidic peptide phosphorylation assay
Sequence of Tyrosine-protein kinase Fyn (Homo sapiens) (P06241 2-537 limits assumed): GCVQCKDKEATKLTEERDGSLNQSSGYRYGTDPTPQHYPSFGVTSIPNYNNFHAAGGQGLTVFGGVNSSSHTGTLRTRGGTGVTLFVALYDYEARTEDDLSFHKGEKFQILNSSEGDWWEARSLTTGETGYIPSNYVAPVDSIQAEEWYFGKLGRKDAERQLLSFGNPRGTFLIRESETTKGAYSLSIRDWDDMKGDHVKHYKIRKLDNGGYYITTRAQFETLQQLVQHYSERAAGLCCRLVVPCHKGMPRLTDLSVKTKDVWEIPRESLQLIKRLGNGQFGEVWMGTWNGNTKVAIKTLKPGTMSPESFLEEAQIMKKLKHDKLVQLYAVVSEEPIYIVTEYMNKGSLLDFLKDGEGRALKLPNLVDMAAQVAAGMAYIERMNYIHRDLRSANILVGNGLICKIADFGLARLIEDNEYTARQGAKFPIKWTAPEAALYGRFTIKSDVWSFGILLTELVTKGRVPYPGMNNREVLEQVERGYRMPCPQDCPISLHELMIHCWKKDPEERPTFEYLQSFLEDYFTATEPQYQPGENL

[4] = target: Protein kinase C gamma type (Homo sapiens) (UniProt P05129); assay: Inhibition of human truncated PKC gamma expressed in baculovirus assessed as substrate phosphorylation using fluorescence-labelled peptides as substrate at 0.06 uM after 90 mins by microfluidic peptide phosphorylation assay
[5] = target: Serine/threonine-protein kinase MARK1 (Homo sapiens) (UniProt Q9P0L2); assay: Inhibition of human full length MARK1 expressed in baculovirus assessed as substrate phosphorylation using fluorescence-labelled peptides as substrate at 0.2 uM after 90 mins by microfluidic peptide phosphorylation assay
Sequence of Serine/threonine-protein kinase MARK1 (Homo sapiens) (Q9P0L2 whole entry, looked up): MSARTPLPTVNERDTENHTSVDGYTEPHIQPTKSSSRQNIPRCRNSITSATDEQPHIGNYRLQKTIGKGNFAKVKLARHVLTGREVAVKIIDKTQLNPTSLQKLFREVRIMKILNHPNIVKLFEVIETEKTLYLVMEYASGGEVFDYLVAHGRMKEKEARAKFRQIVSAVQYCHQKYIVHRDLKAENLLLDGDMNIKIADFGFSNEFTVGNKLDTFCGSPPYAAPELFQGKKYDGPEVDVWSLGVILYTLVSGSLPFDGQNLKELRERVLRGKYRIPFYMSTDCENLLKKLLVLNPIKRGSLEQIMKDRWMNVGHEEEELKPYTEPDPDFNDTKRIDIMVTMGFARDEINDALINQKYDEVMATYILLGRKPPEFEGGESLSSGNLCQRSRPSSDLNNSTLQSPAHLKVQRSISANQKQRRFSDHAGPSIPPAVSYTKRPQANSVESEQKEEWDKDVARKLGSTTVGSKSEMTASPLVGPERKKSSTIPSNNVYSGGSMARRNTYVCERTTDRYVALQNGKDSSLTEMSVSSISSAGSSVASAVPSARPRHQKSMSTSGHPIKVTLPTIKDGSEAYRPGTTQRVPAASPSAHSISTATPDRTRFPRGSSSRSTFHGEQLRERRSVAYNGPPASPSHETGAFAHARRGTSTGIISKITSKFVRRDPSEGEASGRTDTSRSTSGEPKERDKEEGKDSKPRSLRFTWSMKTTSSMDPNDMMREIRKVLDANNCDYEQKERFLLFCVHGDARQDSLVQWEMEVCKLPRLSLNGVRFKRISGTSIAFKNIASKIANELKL

[6] = target: T2, Cytoplasmic tyrosine-protein kinase BMX (Homo sapiens) (UniProt P51813); assay: Inhibition of human full length BMX expressed in baculovirus assessed as substrate phosphorylation using fluorescence-labelled peptides as substrate at 2 uM after 90 mins by microfluidic peptide phosphorylation assay
T2 sequence (whole entry): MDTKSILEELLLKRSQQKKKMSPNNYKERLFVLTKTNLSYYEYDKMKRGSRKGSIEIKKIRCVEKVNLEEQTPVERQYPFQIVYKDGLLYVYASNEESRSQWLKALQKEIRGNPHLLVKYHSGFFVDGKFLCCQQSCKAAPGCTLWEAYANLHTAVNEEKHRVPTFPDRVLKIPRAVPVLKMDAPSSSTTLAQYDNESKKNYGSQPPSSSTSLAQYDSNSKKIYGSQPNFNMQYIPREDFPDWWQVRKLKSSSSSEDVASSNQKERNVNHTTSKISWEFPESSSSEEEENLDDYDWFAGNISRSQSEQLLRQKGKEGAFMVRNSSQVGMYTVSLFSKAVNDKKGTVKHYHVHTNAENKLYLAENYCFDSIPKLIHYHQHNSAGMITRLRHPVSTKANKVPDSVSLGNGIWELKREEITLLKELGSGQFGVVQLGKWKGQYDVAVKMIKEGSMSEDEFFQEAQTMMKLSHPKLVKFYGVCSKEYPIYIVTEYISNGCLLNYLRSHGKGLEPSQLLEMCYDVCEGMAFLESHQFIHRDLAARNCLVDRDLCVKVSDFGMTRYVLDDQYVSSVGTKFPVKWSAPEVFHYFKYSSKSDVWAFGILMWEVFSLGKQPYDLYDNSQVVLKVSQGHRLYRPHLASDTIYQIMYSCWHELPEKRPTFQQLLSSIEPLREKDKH

[7] = target: RAC-alpha serine/threonine-protein kinase (Homo sapiens) (UniProt P31749); assay: Inhibition of human AKT1 catalytic domain expressed in baculovirus assessed as substrate phosphorylation using fluorescence-labelled peptides as substrate at 2 uM after 90 mins by microfluidic peptide phosphorylation assay
Sequence of RAC-alpha serine/threonine-protein kinase (Homo sapiens) (P31749 whole entry, the tested form may be a part): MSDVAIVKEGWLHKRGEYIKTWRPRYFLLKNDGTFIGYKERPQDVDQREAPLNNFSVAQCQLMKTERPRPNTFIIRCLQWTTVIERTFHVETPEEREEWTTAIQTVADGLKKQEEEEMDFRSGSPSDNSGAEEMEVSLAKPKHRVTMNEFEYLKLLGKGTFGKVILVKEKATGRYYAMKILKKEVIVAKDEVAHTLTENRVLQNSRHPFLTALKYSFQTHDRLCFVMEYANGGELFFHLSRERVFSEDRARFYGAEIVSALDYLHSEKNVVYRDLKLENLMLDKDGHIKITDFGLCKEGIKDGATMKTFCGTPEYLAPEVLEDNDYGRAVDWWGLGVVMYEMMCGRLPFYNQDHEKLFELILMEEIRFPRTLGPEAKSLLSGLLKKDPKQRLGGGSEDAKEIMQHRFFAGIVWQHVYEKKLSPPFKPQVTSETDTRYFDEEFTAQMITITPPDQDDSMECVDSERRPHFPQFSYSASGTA

[8] = target: MAP kinase-activated protein kinase 3 (Homo sapiens) (UniProt Q16644); assay: Inhibition of human full length MAPKAPK3 expressed in Escherichia coli cell assessed as substrate phosphorylation using fluorescence-labelled peptides as substrate at 9 uM after 90 mins by microfluidic peptide phosphorylation assay
Sequence of MAP kinase-activated protein kinase 3 (Homo sapiens) (Q16644 whole entry, looked up): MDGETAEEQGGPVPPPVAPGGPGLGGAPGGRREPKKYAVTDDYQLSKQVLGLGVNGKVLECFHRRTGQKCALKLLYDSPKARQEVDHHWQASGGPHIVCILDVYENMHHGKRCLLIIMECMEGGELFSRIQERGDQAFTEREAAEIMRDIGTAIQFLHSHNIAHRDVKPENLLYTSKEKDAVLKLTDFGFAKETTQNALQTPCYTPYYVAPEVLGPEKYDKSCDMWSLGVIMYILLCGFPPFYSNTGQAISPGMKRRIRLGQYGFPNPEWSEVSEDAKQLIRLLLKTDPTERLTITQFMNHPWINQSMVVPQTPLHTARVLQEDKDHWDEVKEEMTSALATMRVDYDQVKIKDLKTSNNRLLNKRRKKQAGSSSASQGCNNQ

[9] = target: T3, Mitogen-activated protein kinase 12 (Homo sapiens) (UniProt P53778); assay: Inhibition of human full length p38 gamma expressed in Escherichia coli cell assessed as substrate phosphorylation using fluorescence-labelled peptides as substrate at 95 uM after 90 mins by microfluidic peptide phosphorylation assay
T3 sequence (whole entry): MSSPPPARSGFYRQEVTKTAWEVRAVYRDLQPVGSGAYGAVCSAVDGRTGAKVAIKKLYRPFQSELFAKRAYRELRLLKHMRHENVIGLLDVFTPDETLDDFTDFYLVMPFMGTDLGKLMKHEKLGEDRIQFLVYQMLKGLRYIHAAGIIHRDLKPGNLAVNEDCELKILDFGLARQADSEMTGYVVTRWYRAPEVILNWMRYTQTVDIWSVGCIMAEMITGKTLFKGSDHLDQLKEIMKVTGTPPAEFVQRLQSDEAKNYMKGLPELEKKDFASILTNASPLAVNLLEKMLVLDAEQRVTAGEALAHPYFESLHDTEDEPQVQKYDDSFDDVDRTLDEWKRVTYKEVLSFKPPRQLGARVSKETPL

[10] = target: Cyclin-dependent kinase 2 (Homo sapiens) (UniProt P24941); assay: Inhibition of human full length CDK2 expressed in baculovirus assessed as substrate phosphorylation using fluorescence-labelled peptides as substrate at 95 uM after 90 mins by microfluidic peptide phosphorylation assay
[11] = target: Aurora kinase B (Homo sapiens) (UniProt Q96GD4); assay: Inhibition of human full length AurB expressed in baculovirus assessed as substrate phosphorylation using fluorescence-labelled peptides as substrate at 420 uM after 90 mins by microfluidic peptide phosphorylation assay
Sequence of Aurora kinase B (Homo sapiens) (Q96GD4 whole entry): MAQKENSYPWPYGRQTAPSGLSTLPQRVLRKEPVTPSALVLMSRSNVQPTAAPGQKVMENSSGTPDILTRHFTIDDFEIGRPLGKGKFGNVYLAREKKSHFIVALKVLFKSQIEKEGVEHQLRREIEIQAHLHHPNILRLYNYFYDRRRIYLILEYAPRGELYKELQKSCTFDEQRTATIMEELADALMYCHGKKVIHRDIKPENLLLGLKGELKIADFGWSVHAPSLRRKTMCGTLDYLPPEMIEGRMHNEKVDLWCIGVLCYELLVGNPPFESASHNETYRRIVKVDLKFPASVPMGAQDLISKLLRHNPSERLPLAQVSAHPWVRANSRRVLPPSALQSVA

Sequence of Ribosomal protein S6 kinase alpha-2 (Homo sapiens) (Q15349 whole entry): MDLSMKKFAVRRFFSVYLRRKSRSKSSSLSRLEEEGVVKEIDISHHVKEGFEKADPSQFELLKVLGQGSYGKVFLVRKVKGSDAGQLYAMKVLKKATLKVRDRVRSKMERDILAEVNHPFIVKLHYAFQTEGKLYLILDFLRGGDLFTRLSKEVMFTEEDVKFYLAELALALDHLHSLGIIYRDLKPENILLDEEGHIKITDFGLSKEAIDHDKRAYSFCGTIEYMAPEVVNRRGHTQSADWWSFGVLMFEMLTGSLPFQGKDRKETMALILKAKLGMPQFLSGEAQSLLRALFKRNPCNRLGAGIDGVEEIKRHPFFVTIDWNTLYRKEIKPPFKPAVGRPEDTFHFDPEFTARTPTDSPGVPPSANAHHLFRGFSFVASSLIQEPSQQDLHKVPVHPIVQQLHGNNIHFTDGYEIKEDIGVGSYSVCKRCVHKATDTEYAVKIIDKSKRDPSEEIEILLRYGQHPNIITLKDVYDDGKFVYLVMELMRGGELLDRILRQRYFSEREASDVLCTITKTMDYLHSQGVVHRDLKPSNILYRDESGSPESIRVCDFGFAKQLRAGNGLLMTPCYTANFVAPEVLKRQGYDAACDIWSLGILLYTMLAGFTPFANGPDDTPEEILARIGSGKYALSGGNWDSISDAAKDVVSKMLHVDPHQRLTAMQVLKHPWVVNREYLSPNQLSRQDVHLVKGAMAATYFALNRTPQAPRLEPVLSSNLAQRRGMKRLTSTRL

NCC1CCN(c2ncnc3[nH]ccc23)CC1
inhibition [1]: 28%
inhibition [2]: 75.5%

NC1(Cc2ccc(Cl)cc2)CCN(c2ncnc3[nH]ccc23)CC1
inhibition [3]: 3%
inhibition [4]: 3.5%

Clc1ccc(C2(c3ccc(-c4ncnc5[nH]cnc45)cc3)CCNCC2)cc1
inhibition [5]: 51%

NC1CCN(c2ncnc3[nH]ccc23)CC1
inhibition [6]: 2%
inhibition [7]: 83%

NCC1CN(c2ncnc3[nH]c4cnccc4c23)CCO1 (stereo unspecified)
inhibition [8]: 74%

NCCc1ccc(-c2ncnc3[nH]cnc23)cc1
inhibition [9]: 13%
inhibition [10]: 39.5%

c1nc(N2CCOCC2)c2nc[nH]c2n1
inhibition [11]: 96%
